# Measured values from patent EP1306084A1, “Compositions for the control of parasitic infestations in fish” (Alpharma AS, priority 1998, dated 1999).
# What was measured:
# sea lice [1] = experiment: Oral treatment in freshwater before sea transfer, sea lice counts after natural infection (Example 4); type: in vivo, salmon (Salmo salar)
# Experimental: The treatment dosage was 9 mg hexaflumuron per kg fish per day for 10 days. This is indicated by "Groups/Timepoints" in the figure; • Figure 2 relates to the trial in Example 2 that was carried out on Atlantic salmon (Salmo salar). […] The treatment dosage varied between 3 - 9 mg hexaflumuron and 9- 12 mg fluazuron per kg fish per day for 7 days. This is indicated by "Groups/Timepoints" in the diagram. […] The treated groups are compared to an untreated control group. The treatment dosage was 4 mg hexaflumuron per kg fish per day for 5 days. This is indicated by "Groups/Timepoints" in the figure. Cage 2 = controls, Cage 4-6 = treated groups, 16.6.97 = time point for sea transfer and 5.8.97= controls treated by bathing with deltamethrin; • Figure 4 relates to the trial described in Example 5, which was carried out on sea trout (Salmo trutta). […] The treated groups are compared with an untreated control group. The dosage for oral treatment was 4 mg hexaflumuron per kilo fish per day for 5 days, and 5 ppm hexaflumuron as a 30 minute bath treatment. This is indicated by "Groups/Timepoints" in the figure. Cage 1.4 = Controls, cage 1.3 = Oral treatment, cage 1.2 = Bath treatment. […] The treated groups are compared with an untreated control group, and one group that has been treated orally with teflubenzuron (10 mg/kg of teflubenzuron per kg fish per day for 7 days). The dosage for oral treatment was 5.6 mg hexaflumuron per kg fish per day for 7 days, and 5 ppm hexaflumuron as a 30 minute bath treatment. […] End of treatment: 22.10.97, Sea transfer: 23.10.97. […]
# About 2,500 salmon (Salmo salar) of average weight 42 grams were treated orally with a daily dosage of 4 mg hexaflumuron per kilo fish for 5 days. […] The number of lice on 10 fish from each cage were counted every third week to check if there was any difference in the number of lice in the cages. […]
# Anilocra physodes = experiment: Oral hexaflumuron against infestation with a parasitic isopod (Example 9); type: in vivo, Sea bass (Dicentrarchus labrax)
# Experimental: In this trial, hexaflumuron was administered orally in order to test the effect against infestations with the parasitic isopod Anilocra physodes in Sea bass (Dicentrarchus labrax).
# 150,000 Sea bass (Dicentrarchus labrax) having an average weight of 2 grams were transferred from a hatchery facility and distributed into 5 cages each containing 30,000 fish. The trial was carried out in a food fish facility in the Mediterranean where the sea water temperature varied in the range of 15.0-25.0°C throughout the trial period.
# Fish in four cages were fed medicated feed at an amount corresponding to 0.5% of the total biomass per day for 6 days, corresponding to 10 mg hexaflumuron/kg fish per day. One week after the medication and subsequently every three weeks the number of parasites on the fish was monitored.
# [2] = Chemical analysis of muscle/skin after injection of hexaflumuron formulations (Example 8); type: in vivo, salmon smolt; settings: 50 mg/kg; for concentration at 5232 h: fish, muscle/skin, T8 (218 days after injection)
# Experimental: Tissue samples (muscle/skin) for chemical analysis were collected from five fish injected with the various hexaflumuron formulations at each sample point in time throughout the trial. […] At sea water transfer, the muscle/skin concentrations in the two other hexaflumuron groups (Apoject 1-Fural, animal oil) varied between 1 and 2.5 µg hexaflumuron/g tissue.
# sea lice [3] = experiment: Oral treatment (coated feed / Akvaletter) of naturally sea lice infected salmon in minicages (Example 2); type: in vivo, Atlantic salmon (Salmo salar)
# Experimental: The treatment dosage was 9 mg hexaflumuron per kg fish per day for 10 days. This is indicated by "Groups/Timepoints" in the figure; • Figure 2 relates to the trial in Example 2 that was carried out on Atlantic salmon (Salmo salar). […] The treatment dosage varied between 3 - 9 mg hexaflumuron and 9- 12 mg fluazuron per kg fish per day for 7 days. This is indicated by "Groups/Timepoints" in the diagram. […] The treated groups are compared to an untreated control group. The treatment dosage was 4 mg hexaflumuron per kg fish per day for 5 days. This is indicated by "Groups/Timepoints" in the figure. Cage 2 = controls, Cage 4-6 = treated groups, 16.6.97 = time point for sea transfer and 5.8.97= controls treated by bathing with deltamethrin; • Figure 4 relates to the trial described in Example 5, which was carried out on sea trout (Salmo trutta). […] The treated groups are compared with an untreated control group. The dosage for oral treatment was 4 mg hexaflumuron per kilo fish per day for 5 days, and 5 ppm hexaflumuron as a 30 minute bath treatment. This is indicated by "Groups/Timepoints" in the figure. Cage 1.4 = Controls, cage 1.3 = Oral treatment, cage 1.2 = Bath treatment. […] The treated groups are compared with an untreated control group, and one group that has been treated orally with teflubenzuron (10 mg/kg of teflubenzuron per kg fish per day for 7 days). The dosage for oral treatment was 5.6 mg hexaflumuron per kg fish per day for 7 days, and 5 ppm hexaflumuron as a 30 minute bath treatment. […] End of treatment: 22.10.97, Sea transfer: 23.10.97. T1 = 3 weeks post end of treatment, T2 = 5 weeks post end of treatment, T3 = 9 weeks post end of treatment, T4 = 12 weeks post end of treatment; • Figure 6 relates to the trial in Example 6 at time points 4-6, with the same trial parameters as for Figure 5. T5 = 15 weeks post end of treatment, T6 = 17 weeks post end of treatment. Cage 3 and 4 were treated by bath with deltamethrin after sea lice counting at T4 (12.01.98); • Figure 7 relates to the trial described in Example 7 where salmon were injected on 17.12.97 with two formulations (groups L and R, respectively) of hexaflumuron and a vaccine formulation without hexaflumuron (control). […] The vaccinated fish was transferred to sea water on 09.01.98; • Figure 8 summarises the trial of Example 8 where salmon smolts were injected with 9 different active substances on 08.07.98. Only results for Moxidectin (Mox.), Lufenuron (Luf.) and hexaflumuron in Apoject 1-Fural (Hex.Apo) and in animal oil (Hex.oil) are shown, and • Figure 9 summarises the trial described in Example 10 where salmon were injected on 03.12.97 with 3 different formulations of hexaflumuron (Hexa 1, Hexa 2 and Hexa 3). The fish were transferred to sea water at T0. […]
smiles,measurement,setting,value
O=C(NC(=O)c1c(F)cccc1F)Nc1cc(Cl)c(OC(F)(F)C(F)F)c(Cl)c1 [hexaflumuron],protection from sea lice infestation after transfer to sea,sea lice [1]; oral 4 mg per kilo fish daily for 5 days in freshwater,6-9 weeks
same,number of lice larger than Chalimus II versus control,"sea lice [1]; oral 4 mg per kilo fish daily for 5 days, 3 and 6 weeks after sea transfer",significantly lower
same,parasites found in the treated groups,"Anilocra physodes; one week after the medication period (10 mg/kg fish per day, 6 days), control 0.1 louse",no parasites were found
same,period of effect against Anilocra physodes after medication,Anilocra physodes; oral 10 mg/kg fish per day for 6 days,about 3 weeks
same,average parasites in the treated groups,"Anilocra physodes; three weeks after the medication period, control 0.4 louse",0.15 louse
same,hexaflumuron concentrations in muscle/skin,"[2]; T3, injected in an aqueous suspension (PBS)",below 0.02 µg per g
same,concentration at 5232 h,[2]; Apoject 1-Fural group,260 ng/g
same,concentration at 5232 h,[2]; animal oil group,270 ng/g
same,reduced the number of lice as compared to the control treatment,"sea lice [3]; all groups treated with hexaflumuron, 3.0-9.0 mg per day, 7 days, 8.0 - 9.8°C",more than 70%
same,reduction of sensitive chalimus and pre-adult stages,"sea lice [3]; groups given the highest dosage (9.0 mg per day, 7 days)",> 99%
same,reduction of sensitive chalimus and pre-adult stages,"sea lice [3]; hexaflumuron groups, 3.0-9.0 mg per day, 7 days",> 90%
